Results on one molecule are retold here after patent US6878388B1, “Vanadium compounds for treating proliferative cell disorders” (Parker Hughes Institute, priority 2000, dated 2005).

Where two headings read alike, the source gives them in different places.

The subject of assay [1] is MDA-MB-231 breast cancer cells. Nature of the assay: In vitro adhesion assay to ECM proteins, MDA-MB-231. The class given is cell-based, human. The note with it: 16 h pretreatment, mean ± SE of 3 experiments. How it is done:
In vitro adhesion assays were used to evaluate the effects of [VO(SO4)(Me2-Phen)2] on the adhesive properties of U87 and MDA-MD-231 cells as described previously (Narla et al., Clin Cancer Res, 4: 2463-2471, 1998). The plates for the adhesion assays were pre-coated with the extracellular matrix (ECM) proteins laminin, fibronectin, vitronectin and type IV collagen (each at a final concentration of 1 μg/ml in PBS) overnight at 4° C. and dried. Exponentially-growing cells (as described in the previous Example) were incubated with [VO(SO4)(Me2-Phen)2] at concentrations ranging from 0.5 μM to 25 μM for 16 hours in a humidified 5% CO2 atmosphere. The cells were then detached from the flasks with 0.05% trypsin (Life Technologies), resuspended in medium, incubated at 37° C. for 2 hours to allow them to recover from the trypsinization stress and examined for their ability to adhere to the plates precoated with ECM proteins. Cells were centrifuged, washed twice with serum-free medium, counted and resuspended in serum-free medium at a final concentration of 2.5×10^5 cells/ml. The cell suspension was added to each well in aliquots of 100 μl and the cells were allowed to adhere for one hour at 37° C. in a humidified 5% CO2atmosphere. The non-adherent cells were removed by gently washing the cells with PBS. The adherent fraction was quantitated using MTT assays as previously described (Narla, Supra).
U87 glioblastoma and MDA-MD-231 breast cancer cells were preincubated with various concentrations of [VO(SO4)(Me2-Phen)2] and processed for adhesion assays. [VO(SO4)(Me2-Phen)2] inhibited adhesion of the U87 and MDA-MB-231 cells to extracellular matrix (ECM) proteins, Pretreatment of cells with [VO(SO4)(Me2-Phen)2] inhibited the adhesion of U87 glioblastoma and MDA-MB-231 breast cancer cells to laminin-, fibronectin-, vitronectin- and collagen-coated plates. The inhibition of glioblastoma cell adhesion was concentration-dependent with mean (±SE) IC50 values from 3 independent experiments shown in the table below.

Assay [2] concerns U87 human glioblastoma cells. Nature of the assay: MTT cytotoxicity assay, U87. Format: cell-based. Particulars: 48 h incubation, 3 independent experiments, read-out: IC50 (mean ± SE). How it is done:
Human brain tumor cells lines U87 MG (Cat.# HTB-14), U118 MG (Cat. # HTB-15), U138 (Cat # HTB-16), U373 MG (CAT. # HTB-17), and T98G (Cat. # CRL-1690) and breast cancer cell lines BT-20 (Cat # HTB-19), MDA-MB-231 (Cat # HTB-26), MDA-MB-361 (Cat # HTB-27), and MCF-7 (Cat # HTB-22) were obtained from American Type Culture Collection (ATCC, Rockville, Md.) and maintained as continuous cell lines in Dulbecco's modified Eagles's medium (U87, U118, U138, U373, T98 and BT-20) or Leibovitz's L-15 medium (MDA-MB-231 and MDA-MB-361). All media were supplemented with 10% fetal calf serum (FCS), 4 mM glutamine, 100 U/ml penicillin G and […] streptomycin sulfate. All tissue culture reagents were obtained from Life Technologies Inc. (GIBCO-BRL, Gaithersburg, Md.).
The cytotoxicity of [VO(SO4)(Me2-Phen)2] against human cancer cell lines was analyzed using the MTT (3-[4,5-dimethylthiazol-2-yl]-2,5-diphenyl tetrazolium bromide) assay (Boehringer Mannheim Corp., Indianapolis, Ind.) as described previously (Narla et al., Clin Cancer Res., 4: 1405-1414, 1998). […] The absorbance at 540 nm (a reference wavelength of 690 nm was used) of the solution in each well was measured using a microplate reader (Labsystems). The percent survival and the IC50 values were calculated using Graphpad Prism v2.0 (Graphpad Software, Inc., San Diego, Calif.) as described previously (Narla et al., Supra). […]

The IC50 is the concentration needed to halve the response being measured.

For the molecule `Cc1ccnc2c1ccc1c(C)ccnc12.Cc1ccnc2c1ccc1c(C)ccnc12.O=S(=O)([O-])[O-].[O]=[V+2]` [[VO(SO4)(Me2-Phen)2], bis(4,7-dimethyl-1,10-phenanthroline) sulfatooxovanadium (IV)], the IC50 worked out at 1000 nM in assay [1] (MDA-MB-231, fibronectin-coated plates, read-out: IC50 inhibition of adhesion to fibronectin); 1000 ± 100 nM in assay [1] (MDA-MB-231, laminin-coated plates, read-out: IC50 inhibition of adhesion to laminin); 1300 nM in assay [1] (MDA-MB-231, type IV collagen-coated plates, read-out: IC50 inhibition of adhesion to collagen); 1100 ± 100 nM in assay [1] (MDA-MB-231, vitronectin-coated plates, read-out: IC50 inhibition of adhesion to vitronectin); 2100 ± 600 nM in assay [2].
